# In ChEMBL document CHEMBL4418302, “C-myc ligands capable of dimerizing in an aqueous solution, and methods of using same” (2016):
# Active and inactive are the calls of the source. The rule behind the calls is not given here.
# Legend:
# Daudi [1] = experiment: Antiproliferative activity against human Daudi cells up to 30 uM incubated for 3 days by Cell-Titer 96 aqueous one solution cell proliferation assay; assay type: functional, cell-based
# MV4-11 [2] = experiment: Antiproliferative activity against human MV411 cells up to 30 uM incubated for 3 days by Cell-Titer 96 aqueous one solution cell proliferation assay; assay type: functional, cell-based
# K562 [3] = experiment: Antiproliferative activity against human K562 cells up to 30 uM incubated for 3 days by Cell-Titer 96 aqueous one solution cell proliferation assay; assay type: functional, cell-based
# [4] = target: Myc proto-oncogene protein (Homo sapiens, UniProt P01106); experiment: Binding affinity to recombinant full-length DDK-tagged human c-Myc expressed in HEK293T cells assessed as inhibition of Max/c-Myc protein-protein interaction incubated for 1 hr by ELISA; assay type: cell-based
# Chain of Myc proto-oncogene protein (P01106 whole entry): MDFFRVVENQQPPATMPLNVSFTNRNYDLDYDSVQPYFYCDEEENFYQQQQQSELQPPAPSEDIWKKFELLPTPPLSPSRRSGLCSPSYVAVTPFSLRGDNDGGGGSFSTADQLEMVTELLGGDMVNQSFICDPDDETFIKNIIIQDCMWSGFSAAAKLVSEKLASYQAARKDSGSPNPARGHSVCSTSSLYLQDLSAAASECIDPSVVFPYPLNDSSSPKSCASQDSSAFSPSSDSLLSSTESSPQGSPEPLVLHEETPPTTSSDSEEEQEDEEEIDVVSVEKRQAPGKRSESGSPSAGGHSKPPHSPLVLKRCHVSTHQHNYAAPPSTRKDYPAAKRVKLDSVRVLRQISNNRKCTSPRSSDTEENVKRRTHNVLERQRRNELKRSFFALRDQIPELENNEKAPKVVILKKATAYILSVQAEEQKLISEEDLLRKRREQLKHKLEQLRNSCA
# K562 [5] = experiment: Antiproliferative activity against human K562 cells incubated for 3 days by Cell-Titer 96 aqueous one solution cell proliferation assay; assay type: functional, cell-based; details: K562, 72 h
# Daudi [6] = experiment: Antiproliferative activity against human Daudi cells incubated for 3 days by Cell-Titer 96 aqueous one solution cell proliferation assay; assay type: functional, cell-based; details: 72 h
# MV4-11 [7] = experiment: Antiproliferative activity against human MV411 cells incubated for 3 days by Cell-Titer 96 aqueous one solution cell proliferation assay; assay type: functional, cell-based; details: MV4-11, 72 h
Compound,IC50 [4],IC50 (K562 [5]),IC50 (Daudi [6]),IC50 (MV4-11 [7]),Activity (Daudi [1]),Activity (MV4-11 [2]),Activity (K562 [3])
O=C(NCc1ccc(B(O)O)cc1)c1ccc(Nc2ccc([N+](=O)[O-])c3nonc23)cc1,–,–,–,–,inactive,inactive,inactive
O=C(NCc1cccc(B(O)O)c1)c1ccccc1Nc1ccc([N+](=O)[O-])c2nonc12,–,> 30 µM,> 30 µM,> 30 µM,inactive,inactive,inactive
"CCc1ccc(/C=C2\SC(=O)N(CC[C@H]3C[C@H]4C=C[C@@H]3C4)C2=O)cc1 (single isomer, unassigned)",> 30 µM,–,–,–,–,–,–
CCc1ccc(/C=C2\SC(=O)N(CCNC(=O)[C@H]3C[C@H]4C=C[C@@H]3C4)C2=O)cc1,> 30 µM,–,–,–,–,–,–
CCc1ccc(/C=C2\SC(=O)NC2=O)cc1,> 30 µM,–,–,–,–,–,–

# Continued, in another order:
IC50 [4],IC50 (K562 [5]),IC50 (Daudi [6]),IC50 (MV4-11 [7]),Compound,Activity (Daudi [1]),Activity (MV4-11 [2]),Activity (K562 [3])
> 30 µM,–,–,–,CCc1ccc(/C=C2\SC(=O)N(CC[C@H]3C[C@@H]4C[C@H]3[C@@H](O)[C@H]4O)C2=O)cc1,–,–,–
> 30 µM,–,–,–,NC(=O)c1ccccc1Nc1ccc([N+](=O)[O-])c2nonc12,–,–,–
> 30 µM,> 30 µM,> 30 µM,> 30 µM,O=C(NCc1ccc(B(O)O)cc1)c1ccccc1Nc1ccc([N+](=O)[O-])c2nonc12,inactive,inactive,inactive
> 30 µM,> 30 µM,> 30 µM,> 30 µM,CCc1ccc(/C=C2\SC(=O)N(CCNC(=O)[C@H]3C[C@@H]4C[C@H]3[C@@H](O)[C@H]4O)C2=O)cc1,inactive,inactive,inactive
